Laboratory results as given in patent US20120035175A1, “Novel salts as Anti-Inflammatory, Immunomodulatory and Anti-Proliferatory Agents” (4SC AG, priority 2010, published 2012).

Assays:
DHODH = DHODH (Rattus norvegicus, UniProt Q63707); experiment: Inhibition assay of DHODH activity (column headed 'rate'); assay type: biochemical; conditions: class symbols, key in nM
Method: (§1) The standard assay mixture contained 50 μM decyclo ubichinone, 100 μM dihydroorotate, 60 μM 2,6-dichloroindophenol, as well as 20 mU DHODH. The volume activity of the recombinant enzyme used was 30 U/ml. Measurements were conducted in 50 mM TrisHCl (150 mM KCl, 0.1% Triton X-100, pH 8.0) at 30° C. in a final volume of 1 ml. The components were mixed, and the reaction was started by adding dihydroorotate. The course of reaction was followed by spectrophotometrically measuring the decrease in absorption at 600 nm for […].
(§2) Inhibitory studies were conducted in a standard assay with additional variable amounts of inhibitor. […] These investigations were carried out with recombinant human as well as with recombinant murine DHODH provided by Prof. M. Löffler, Marburg, Germany [M. Löffler, Chem. Biol. Interact.

recombinant human DHODH = target: T1, recombinant human DHODH (Homo sapiens, UniProt Q02127); experiment: Inhibition assay of DHODH activity (human enzyme); assay type: biochemical; conditions: recombinant human DHODH; class symbols, key in nM; read-out: human IC50-Value
T1 construct: Prof; M. Löffler, Marburg, Germany (gift)
Method: as §1, §2

recombinant murine DHODH = target: T2, recombinant murine DHODH (Mus musculus, UniProt O35435); experiment: Inhibition assay of DHODH activity (murine enzyme); assay type: biochemical; conditions: class symbols, key in nM
T2 construct: Prof; M. Löffler, Marburg, Germany (gift)
Method: as §1, §2

[1] = Dynamic vapor sorption (water uptake); assay type: physicochemical
Description: DVS (SMS): Surface Measurement Systems Ltd. DVS-1 water vapour sorption analyzer. The sample is placed on a platinum sample pan and allowed to equilibrate at a given relative humidity (r.h.), usually 50% r.h. Then, a pre-defined humidity program was started with a scanning rate of 5% r.h. change per hour. First step: from 50% r.h. to 0% r.h. (in case of a possibly hydrate as starting material 50 to 95% r.h.), second step: from 0% to 95% r.h. (in case of a possibly hydrate as starting material 95 to 0% r.h.)

[2] = Long-term stability, 18 months storage, HPLC; assay type: physicochemical
Method: HPLC: HPLC was performed with a Dionex UltiMate® 3000 liquid chromatograph comprising a solvent Rack, a vacuum degasser, a binary pump (mikro), a static mixer (500 μl), an autosampler, a 25 μl sample loop, a 100 μl syringe, a column oven and a DAD detector (semimicro measuring cell), which was set up for UV analysis. Data analysis was done with Chromeleon® 6.80 SP3. Compounds were separated at 30° C. on a Phenomenex Onyx™ Monolithic C18 50×2 mm column. The injection volume was 2 μl and the detection wavelength was 305 nm. As mobile phase, a gradient of 0.1% formic acid in HPLC grade water/acetonitrile was used, starting at a concentration of 5% acetonitrile. The starting concentration was held for 1 minute, then the gradient was ramped linearly to 95% acetonitrile over the course of 2 min, held for 0.7 min at 95% acetonitrile, after which it was returned to 5% acetonitrile within 0.1 min and kept constant for 0.7 min to re-equilibrate the column. The mobile phase flow rate was 1.5 ml/min.
The compounds were stored for 18 months at ambient conditions (20-25° C., 30-60% relative humidity) and subsequently analysed by HPLC for purity.

[3] = test system: Human peripheral blood mononuclear cells (PBMC), T-cell proliferation; experiment: Proliferation assay of human T-cells (PHA-stimulated PBMC, BrdU ELISA); assay type: cell-based; conditions: PHA 20 μg/ml, 48 hours
Method: Human peripheral blood mononuclear cells (PBMC) were obtained from healthy volunteers and transferred to RPM11640 cell culture medium containing 10% dialyzed fetal calf serum. 80,000 cells per well were pipetted into a 96-well plate and phytohemagglutinin (PHA) was added in phosphate buffered saline to a final concentration of 20 μg/ml to stimulate T-cell proliferation. Vidofludimus was added in dimethyl sulfoxide (DMSO, final concentration: 0.1 Vol %) to final concentrations ranging from 20 nM to 50 μM. After incubation for 48 hours, cell proliferation was quantified using the “cell proliferation ELISA BrdU” (Roche) according to the manufacturer's instructions. […] (see FIG. 1).

[4] = test system: human lymphocyte cell proliferation; experiment: Human lymphocyte cell proliferation (FIG. 1 legend); assay type: cell-based; conditions: concentration of 100 μM

T2 sequence (O35435 whole entry): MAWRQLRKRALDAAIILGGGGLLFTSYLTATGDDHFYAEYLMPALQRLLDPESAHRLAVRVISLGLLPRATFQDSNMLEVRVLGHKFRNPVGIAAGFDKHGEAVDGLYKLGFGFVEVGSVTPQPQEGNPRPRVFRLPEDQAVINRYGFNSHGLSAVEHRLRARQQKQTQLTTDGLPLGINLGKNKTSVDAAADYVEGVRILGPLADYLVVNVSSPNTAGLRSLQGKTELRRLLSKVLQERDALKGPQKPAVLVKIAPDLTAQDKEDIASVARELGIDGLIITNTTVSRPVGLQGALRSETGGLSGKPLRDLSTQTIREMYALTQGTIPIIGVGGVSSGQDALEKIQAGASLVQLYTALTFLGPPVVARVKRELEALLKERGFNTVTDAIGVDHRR
Chain of DHODH (Q63707 whole entry): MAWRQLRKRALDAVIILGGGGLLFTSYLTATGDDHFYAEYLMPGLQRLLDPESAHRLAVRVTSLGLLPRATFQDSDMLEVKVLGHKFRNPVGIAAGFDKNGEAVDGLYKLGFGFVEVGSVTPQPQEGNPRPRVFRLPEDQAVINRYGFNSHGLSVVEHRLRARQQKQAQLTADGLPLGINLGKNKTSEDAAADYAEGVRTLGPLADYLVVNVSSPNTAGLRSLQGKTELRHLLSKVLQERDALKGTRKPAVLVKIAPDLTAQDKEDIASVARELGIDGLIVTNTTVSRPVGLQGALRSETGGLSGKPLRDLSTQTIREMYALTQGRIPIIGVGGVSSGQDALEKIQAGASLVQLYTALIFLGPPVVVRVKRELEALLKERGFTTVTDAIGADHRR
T1 sequence (Q02127 whole entry): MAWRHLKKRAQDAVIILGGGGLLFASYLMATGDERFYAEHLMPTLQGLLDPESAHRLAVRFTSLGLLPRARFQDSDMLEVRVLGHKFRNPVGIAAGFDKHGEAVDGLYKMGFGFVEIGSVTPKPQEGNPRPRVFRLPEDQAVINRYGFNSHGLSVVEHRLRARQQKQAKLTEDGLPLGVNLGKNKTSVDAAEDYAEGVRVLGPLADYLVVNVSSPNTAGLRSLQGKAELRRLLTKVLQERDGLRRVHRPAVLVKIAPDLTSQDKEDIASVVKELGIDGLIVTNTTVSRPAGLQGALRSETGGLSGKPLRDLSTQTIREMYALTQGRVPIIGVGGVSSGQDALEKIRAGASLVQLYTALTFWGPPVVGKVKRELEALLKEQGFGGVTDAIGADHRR

Row | Compound | IC50 (DHODH) | IC50 (recombinant human DHODH) | IC50 (recombinant murine DHODH) | % water uptake at 95% r.h. ([1]; 95% r.h.) | % water uptake at 85% r.h. ([1]; about 85% r.h.) | Peak area ([2]; HPLC after 18 months storage at ambient conditions (20-25° C., 30-60% relative humidity)) | Occurrence of hydrolysis product in HPLC after 18 months storage ([2]; ambient conditions (20-25° C., 30-60% relative humidity), LOD for hydrolysis product: 0.1 μg/ml) | IC50 [3] | Reduction of human lymphocyte cell proliferation [4]
1 | COc1ccccc1-c1cc(F)c(NC(=O)C2=C(C(=O)O)COC2)c(F)c1 [Compound 47, 4-((3,5-difluoro-2′-methoxy-[1,1′-biphenyl]-4-yl)carbamoyl)-2,5-dihydrofuran-3-carboxylic acid] | < 800 nM | < 800 nM | > 1500 nM |  |  |  |  |  | 
2 | COc1cccc(-c2ccc(NC(=O)C3=C(C(=O)O)CCC3)c(F)c2)c1 [Compound 26, 2-((3-fluoro-3′-methoxy-[1,1′-biphenyl]-4-yl)carbamoyl)cyclopent-1-enecarboxylic acid] |  |  | > 1500 nM | 0.1% | 0.03% | >99% | Below LOD* | 4100 nM | 
3 | O=C(O)C1=C(C(=O)Nc2ccc(-c3ccccc3)cc2)CCC1 [2-(Biphenyl-4-ylcarbamoyl)-cyclopent-1-enecarboxylic acid] |  |  |  |  |  |  |  |  | Reduction of human lymphocyte cell proliferation
